Results taken from article PMC4140855, “Production of an Attenuated Phenol-Soluble Modulin Variant Unique to the MRSA Clonal Complex 30 Increases Severity of Bloodstream Infection” (PLoS Pathogens, 2014).

Columns and labels:
[1] = biological target: T1, FPR1 (Homo sapiens, UniProt P21462); assay: Ca2+ flux in HL60 cells stably transfected with FPR1; type: cell-based
T1 construct: expressed in transfected cells; host or cells: HL60 cells, stably transfected
T1 sequence (P21462 1-350): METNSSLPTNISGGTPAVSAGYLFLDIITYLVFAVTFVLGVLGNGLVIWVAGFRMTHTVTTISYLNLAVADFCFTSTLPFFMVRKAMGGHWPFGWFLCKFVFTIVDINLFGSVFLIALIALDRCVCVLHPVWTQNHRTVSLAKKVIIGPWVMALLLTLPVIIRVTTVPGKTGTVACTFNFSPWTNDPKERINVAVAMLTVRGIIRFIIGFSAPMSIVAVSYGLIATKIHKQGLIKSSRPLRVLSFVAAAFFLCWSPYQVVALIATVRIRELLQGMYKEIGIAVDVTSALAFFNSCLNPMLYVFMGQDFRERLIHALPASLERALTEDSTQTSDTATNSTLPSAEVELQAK
Procedure: Next, we analyzed Ca^2+ flux as a general measure to test for neutrophil activation, as used in previous studies. HL60 cells stably transfected with different FPR receptor genes were used to determine which FPR receptors are differentially activated by PSMα3 versus PSMα3N22Y (Fig. 4A). […] At a peptide concentration of 100 nM, we observed a difference of ∼factor 2 in chemotactic activity comparing the two peptides when FPR1 recognition was inhibited by CHIPS, likely attributable to FPR2-mediated recognition. Owing to the overall ∼10 times lower capacity to stimulate FPR receptors other than FPR2, we observed no chemotaxis at that peptide concentration with addition of the FPR2 blocking agent FLIPr.
(A) Differential activation of FPRs by PSMα3 versus PSMα3N22Y was measured using synthetic peptides and Ca^2+ flux observed in HL60 cells stably transfected with the corresponding FPR genes as readout, using three biological and two technical replicates. The calculated Kd values are shown on the right. […] (B) Ca^2+ flux in human neutrophils upon addition of PSMα3 or PSMα3N22Y and inhibition by FLIPr (FPR2 inhibitor) or CHIPS (FPR1 inhibitor). […]
Human neutrophils were isolated from venous blood of healthy donors as described, [39]. Neutrophil chemotaxis and Ca^2+ flux were determined as previously described, [24]. […] Chemotaxis of neutrophils was determined using a transwell system (Costar) with analysis of neutrophil migration using fluorescence labeling. Calcium fluxes were monitored as a surrogate marker for chemotaxis since it can be measured more robustly and accurately than chemotaxis. For measurement of Ca^2+ fluxes, 5×10^6 neutrophils/ml were labeled with a fluorescent dye and analyzed with a FACScalibur (Becton Dickinson) as described. […] Measurements of 2,000 events were performed and Ca^2+ flux was expressed as relative fluorescence corrected for buffer controls. […] At the desired times, PMN lysis was determined by release of lactate dehydrogenase (LDH) (Cytotoxicity Detection Kit, Roche Applied Sciences).

[2] = tested on: human neutrophils; conditions: ref [11]; cited from earlier work
Source text: PSMs are short, amphipathic, α-helical peptides with a major impact on S. aureus virulence, [11]. The PSMα peptides of S. aureus in particular cause lysis of a variety of cell types, including neutrophils (or polymorphonuclear leukocytes, PMNs), monocytes, erythrocytes, and osteoblasts [11]–[13]. The rather low target specificity of PSM-mediated cytolysis is due to the fact that lysis is believed to be receptor-independent, [15], which is reflected by the capacity of PSMs to lyse artificial vesicles. In addition, PSMs have pro-inflammatory capacities that are recep ...

| Compound | Differential activation of FPR receptors by the two peptides ([1]; Ca2+ flux, transfected HL60 cells, not FPR2 and FPR3) | Kd ([1]; one site-binding model from Ca2+ flux, synthetic peptides, FPR1-transfected HL60 cells, three biological and two technical replicates, error = standard deviation) | Factor of difference in FPR1 Kd, PSMα3 versus PSMα3N22Y ([1]; significant difference) | Capacity to elicit chemotaxis by neutrophils, relative to other PSMs [2] | Pro-inflammatory and cytolytic potency relative to other PSMs of S. aureus [2] |
| --- | --- | --- | --- | --- | --- |
| CSCC[C@H](NC=O)C(=O)N[C@@H](CCC(=O)O)C(=O)N[C@@H](Cc1ccccc1)C(=O)N[C@H](C(=O)N[C@@H](C)C(=O)N[C@@H](CCCCN)C(=O)N[C@@H](CC(C)C)C(=O)N[C@@H](Cc1ccccc1)C(=O)N[C@@H](CCCCN)C(=O)N[C@@H](Cc1ccccc1)C(=O)N[C@@H](Cc1ccccc1)C(=O)N[C@@H](CCCCN)C(=O)N[C@@H](CC(=O)O)C(=O)N[C@@H](CC(C)C)C(=O)N[C@@H](CC(C)C)C(=O)NCC(=O)N[C@@H](CCCCN)C(=O)N[C@@H](Cc1ccccc1)C(=O)N[C@@H](CC(C)C)C(=O)NCC(=O)N[C@@H](CC(N)=O)C(=O)N[C@@H](Cc1ccc(O)cc1)C(=O)O)C(C)C [PSMα3N22Y] | only FPR1 was activated differentially | 3.04 ± 0.682 µM | ~5 |  |  |
| CSCC[C@H](NC=O)C(=O)N[C@@H](CCC(=O)O)C(=O)N[C@@H](Cc1ccccc1)C(=O)N[C@H](C(=O)N[C@@H](C)C(=O)N[C@@H](CCCCN)C(=O)N[C@@H](CC(C)C)C(=O)N[C@@H](Cc1ccccc1)C(=O)N[C@@H](CCCCN)C(=O)N[C@@H](Cc1ccccc1)C(=O)N[C@@H](Cc1ccccc1)C(=O)N[C@@H](CCCCN)C(=O)N[C@@H](CC(=O)O)C(=O)N[C@@H](CC(C)C)C(=O)N[C@@H](CC(C)C)C(=O)NCC(=O)N[C@@H](CCCCN)C(=O)N[C@@H](Cc1ccccc1)C(=O)N[C@@H](CC(C)C)C(=O)NCC(=O)N[C@@H](CC(N)=O)C(=O)N[C@@H](CC(N)=O)C(=O)O)C(C)C [PSMα3] |  |  |  | by far exceeds that of any other PSM of S. aureus | by far most pro-inflammatory and cytolytic PSM of S. aureus |
